According to the supplement of paper PMC10307832:

Legend:
Assay in all cases: relative viability (nuclei count vs DMSO), 5 days (fraction); higher = more cells survive
[1] = compound: CC(C)CCN1c2nc(Nc3cc(F)c(O)c(F)c3)ncc2N(C)C(=O)C1C [BI-D1870] + C[C@@H](Oc1cc(-c2cnn(C3CCNCC3)c2)cnc1N)c1c(Cl)ccc(F)c1Cl [Crizotinib] (partner 1 µM)
In short: (§1)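 Lung cancer cell lines in 1536-well plates were dosed by pin tool the day after seeding, either with one drug alone or with a fixed anchor-drug dose plus five library-drug doses (not always all listed) in √10 steps. After 5 days, cells were fixed and their nuclei stained in one step (final 0.05% Triton X-100, 1% formaldehyde, 1 ug/ml Hoechst), then counted on 4× images. Relative viability is the nuclei count in treated wells divided by that in vehicle wells. Values are medians of duplicate plates.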

[2] = compound: CC(C)CCN1c2nc(Nc3cc(F)c(O)c(F)c3)ncc2N(C)C(=O)C1C [BI-D1870] + COc1cccc2cc(-c3nc([C@H]4CC[C@H](C(=O)O)CC4)n4ncnc(N)c34)[nH]c12 [OSI-027] (partner 0.5 µM)
In short: as §1

[3] = compound: O=c1ncccn1[C@@H]1O[C@H](CO)[C@@H](O)[C@H]1O [Zebularine] + Nc1nc2[nH]cc(CCc3ccc(C(=O)N[C@@H](CCC(=O)O)C(=O)O)cc3)c2c(=O)[nH]1 [Pemetrexed] (partner 0.2 µM)
In short: as §1

[4] = compound: O=c1ncccn1[C@@H]1O[C@H](CO)[C@@H](O)[C@H]1O [Zebularine] + N=C(N)NC(=N)NCCc1ccccc1 [Phenformin] (partner 250 µM)
In short: as §1

UMC-11
relative viability ([1]; first compound 0.04 µM): 0.477
relative viability ([1]; first compound 0.1265 µM): 0.585
relative viability ([1]; first compound 0.4 µM): 0.533
relative viability ([1]; first compound 1.265 µM): 0.694
relative viability ([1]; first compound 4 µM): 0.172
relative viability ([2]; first compound 0.04 µM): 0.519
relative viability ([2]; first compound 0.1265 µM): 0.48
relative viability ([2]; first compound 0.4 µM): 0.479
relative viability ([2]; first compound 1.265 µM): 0.406
relative viability ([2]; first compound 4 µM): 0.16
relative viability ([3]; first compound 1 µM): 0.809
relative viability ([3]; first compound 3.162 µM): 0.724
relative viability ([3]; first compound 10 µM): 0.388
relative viability ([3]; first compound 31.62 µM): 0.649
relative viability ([3]; first compound 100 µM): 0.417
relative viability ([4]; first compound 1 µM): 0.282
relative viability ([4]; first compound 3.162 µM): 0.344
relative viability ([4]; first compound 10 µM): 0.258
relative viability ([4]; first compound 31.62 µM): 0.327
relative viability ([4]; first compound 100 µM): 0.292
